# Measurements as given in article PMC11005446 (European journal of pharmaceutical sciences : official …, 2021).
# Read-outs that look alike come from different tables or passages of the source.
# Assays:
# [1] = tested on: cynomolgus monkey hepatocytes; settings: ref Ufuk et al., 2018; cited from earlier work
# [2] = tested on: OATP1B1, NTCP, and OATP1B3; settings: ref Ho et al., 2006; Kitamura et al., 2008; cited from earlier work
# [3] = tested on: OATP1B3; settings: cited from earlier work
# [4] = tested on: OATP1B1; settings: read-out: Michaelis constant (Km) for OATP1B1, cited from earlier work
# [5] = tested on: human hepatocytes; settings: suspension of human hepatocytes, with vs without rifampicin; ref Bi et al., 2013; cited from earlier work
# [6] = tested on: OATP1B1 and OATP1B3; settings: for Pre+Co-Incubation R / Co-Incubation R: Hepatocytes, substrate rosuvastatin, R-value model; for accumulation of [3H]rosuvastatin after inhibitor pre-incubation: washing
# [7] = tested on: OATP1B1 and OATP1B3; settings: transporter-expressing cell lines; ref Farasyn et al., 2019; cited from earlier work
# [8] = tested on: OATP1B1 and OATP1B3; assay: Inhibition of [3H]pitavastatin accumulation in human SCH; assay type: in vitro ADME; settings: for Co-Incubation R / Pre+Co-Incubation R: Hepatocytes, substrate pitavastatin, R-value model; for accumulation of [3H]pitavastatin after inhibitor pre-incubation: human SCH, washing
# [9] = Estimated maximum total plasma concentration at the inlet to the liver; settings: calculated by Eq. 3 from literature parameters (Supplement Table S2)
# [10] = biological target: T1, OATP1B3 (Homo sapiens, UniProt Q9NPD5); assay: Inhibition of [3H]CCK-8 accumulation in human SCH; assay type: in vitro ADME; settings: mean ± SE
# T1 sequence (Q9NPD5 1-702): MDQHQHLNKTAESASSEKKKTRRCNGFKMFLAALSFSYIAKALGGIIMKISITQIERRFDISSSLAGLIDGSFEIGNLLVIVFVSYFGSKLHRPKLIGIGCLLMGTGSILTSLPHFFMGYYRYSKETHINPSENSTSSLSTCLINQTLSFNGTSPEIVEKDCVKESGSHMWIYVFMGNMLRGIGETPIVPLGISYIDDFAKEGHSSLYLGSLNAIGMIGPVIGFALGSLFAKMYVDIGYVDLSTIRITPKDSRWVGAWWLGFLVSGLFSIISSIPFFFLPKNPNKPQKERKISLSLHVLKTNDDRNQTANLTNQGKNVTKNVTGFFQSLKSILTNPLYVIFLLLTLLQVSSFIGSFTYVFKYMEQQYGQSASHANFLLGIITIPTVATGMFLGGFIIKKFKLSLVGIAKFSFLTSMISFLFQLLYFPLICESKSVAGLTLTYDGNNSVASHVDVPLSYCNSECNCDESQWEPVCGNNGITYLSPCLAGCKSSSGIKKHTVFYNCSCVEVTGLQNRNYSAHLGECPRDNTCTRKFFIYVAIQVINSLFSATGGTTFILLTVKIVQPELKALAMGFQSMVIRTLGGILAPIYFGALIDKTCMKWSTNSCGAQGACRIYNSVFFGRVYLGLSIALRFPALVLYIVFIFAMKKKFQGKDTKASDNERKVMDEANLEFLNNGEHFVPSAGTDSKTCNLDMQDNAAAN
# [11] = tested on: OATP1B1 and OATP1B3; settings: both cell lines and human SCH; vs US FDA cut-off 1.1
# [12] = tested on: OATP1B1; settings: OATP1B1-expressing cell line, substrate rosuvastatin; ref Farasyn et al., 2019; cited from earlier work
# [13] = biological target: T1, OATP1B3; settings: OATP1B3-expressing cell line, substrate E217βG; ref Pahwa et al., 2017; cited from earlier work
# [14] = tested on: OATP1B1; settings: OATP1B1-expressing cell line, substrate E217βG; ref Pahwa et al., 2017; cited from earlier work
# [15] = human hepatocytes, inhibitor 100 μM co-incubation, mean ± SE
molecule,measurement,setting,value
CC(C)c1nc(N(C)S(C)(=O)=O)nc(-c2ccc(F)cc2)c1/C=C/[C@@H](O)C[C@@H](O)CC(=O)O [rosuvastatin],uptake clearance attributed to passive diffusion,[1],4%
same,contribution of NTCP to active uptake into human hepatocytes,[2],~35%
same,contribution of OATP1B1 to active uptake into human hepatocytes,[2],~ 50%
same,contribution of OATP1B3 to active uptake into human hepatocytes,[2],~15%
same,Km,"[3]; read-out: Michaelis constant (Km) for OATP1B3, ref Kitamura et al., 2008",14.2 µM
same,Km,"[4]; ref Kitamura et al., 2008",800 nM
same,share of total hepatic uptake clearance due to active transport processes,[5],approximately 90%
O=C(O)C[C@H](O)C[C@H](O)/C=C/c1c(C2CC2)nc2ccccc2c1-c1ccc(F)cc1 [pitavastatin],uptake clearance attributed to passive diffusion,[1],20%
same,Km,"[3]; read-out: Michaelis constant (Km) for OATP1B3, ref Hirano et al., 2004",3 µM
same,Km,"[4]; ref Hirano et al., 2004",3000 nM
cholecystokinin 8 [CCK-8],Km,[3],3.8 µM
"CO[C@H]1C[C@@H]2CC[C@@H](C)[C@@](O)(O2)C(=O)C(=O)N2CCCC[C@H]2C(=O)O[C@H]([C@H](C)C[C@@H]2CC[C@@H](OCCO)[C@H](OC)C2)CC(=O)[C@H](C)/C=C(\C)[C@@H](O)[C@@H](OC)C(=O)[C@H](C)C[C@H](C)/C=C/C=C/C=C/1C [EVR, everolimus]",Pre+Co-Incubation R,[6],1.07 (1.05–1.11)
same,accumulation of [3H]rosuvastatin after inhibitor pre-incubation,"[6]; human SCH, 1 h pre-incubation at 0.2 μM, model estimate ± SE",0.8 ± 0.07 fold of CTL
same,accumulation of [3H]rosuvastatin after inhibitor pre-incubation,"[6]; human SCH, 1 h pre-incubation at 0.8 μM, model estimate ± SE",0.59 ± 0.07 fold of CTL
same,"R values from cell lines, pre+co-incubation",[7],1.23
same,Co-Incubation R,[8],1.01 (1.01–1.02)
same,Pre+Co-Incubation R,[8],1.09 (1.08–1.13)
same,accumulation of [3H]pitavastatin after inhibitor pre-incubation,"[8]; 1 h pre-incubation at 0.5 μM, model estimate ± SE",0.78±0.06 fold vs. CTL
same,"maximum total plasma concentration at the inlet to the liver (Iin,max,plasma)",[9],0.17 µM
CO[C@H]1/C=C/O[C@@]2(C)Oc3c(C)c(O)c4c(O)c(c(/C=N/N5CCN(C)CC5)c(O)c4c3C2=O)NC(=O)/C(C)=C\C=C\[C@H](C)[C@H](O)[C@@H](C)[C@@H](O)[C@@H](C)[C@H](OC(C)=O)[C@@H]1C [rifampicin],"accumulation of [3H]rosuvastatin, pre+co-incubation","[6]; human SCH, inhibitor 50 μM, 1 h pre-incubation then co-incubation, mean ± SE",0.45 ± 0.15 fold of control
same,"accumulation of [3H]CCK-8, pre+co-incubation","[10]; human SCH, inhibitor 50 μM, 1 h pre-incubation then co-incubation",0.18 ±0.12 fold of control
"CO[C@H]1C[C@@H]2CC[C@@H](C)[C@@](O)(O2)C(=O)C(=O)N2CCCC[C@H]2C(=O)O[C@H]([C@H](C)C[C@@H]2CC[C@@H](O)[C@H](OC)C2)CC(=O)[C@H](C)/C=C(\C)[C@@H](O)[C@@H](OC)C(=O)[C@H](C)C[C@H](C)/C=C/C=C/C=C/1C [SIR, sirolimus]",Co-Incubation R,[6],1.00 (1.00–1.00)
same,Pre+Co-Incubation R,[6],1.00 (1.00–1.00)
same,accumulation of [3H]rosuvastatin after inhibitor pre-incubation,"[6]; human SCH, 1 h pre-incubation at 0.6 μM",0.63 ± 0.08 fold vs. CTL
same,Co-Incubation R,[8],1.00 (1.00–1.01)
same,Pre+Co-Incubation R,[8],1.00 (1.00–1.01)
same,accumulation of [3H]pitavastatin after inhibitor pre-incubation,[8]; 1 h pre-incubation at 0.6 μM,did not affect
same,R-values under pre+co-incubation conditions,[11],< 1.1
same,Co-Incubation R,[12],1.00 (1.00–1.03)
same,"maximum total plasma concentration at the inlet to the liver (Iin,max,plasma)",[9],0.03 µM
"O=C1OC(c2ccc(O)c(S(=O)(=O)O)c2)(c2ccc(O)c(S(=O)(=O)O)c2)c2c(Br)c(Br)c(Br)c(Br)c21 [BSP, bromosulfophthalein]","accumulation of [3H]rosuvastatin, co-incubation",[6]; [15],0.20 ± 0.09 fold of control
same,"inhibition of rosuvastatin uptake, co-incubation","[6]; human hepatocytes, inhibitor 100 μM co-incubation, range 77–92%",~ 84%
same,"accumulation of [3H]pitavastatin, co-incubation",[8]; [15],0.44 ± 0.05 fold of control
same,"accumulation of [3H]CCK-8, co-incubation","[10]; human hepatocytes, inhibitor 100 μM co-incubation",0.10 ± 0.01 fold of control
"Cc1nc(Nc2ncc(C(=O)Nc3c(C)cccc3Cl)s2)cc(N2CCN(CCO)CC2)n1 [Dasatinib, dasatinib]",Co-Incubation R,[6],1.09 (1.05–1.14)
same,Pre+Co-Incubation R,[6],1.27 (1.15–1.51)
same,Co-Incubation R,[13],1.05 (1.05–1.09)
same,Pre+Co-Incubation R,[13],1.11 (1.09–1.22)
same,R-values under pre+co-incubation conditions,[11],> 1.1
same,Co-Incubation R,[14],1.07 (1.04–1.09)
same,Pre+Co-Incubation R,[14],1.13 (1.09–1.20)
